# Measurements taken from patent publication US11850243B2, “Dihydropyridine compositions and methods for treating neurological disorders” (Cavalon Therapeutics, Inc., priority 2021, dated 2023).
# How the values were obtained:
# [1] = tested on: Parkinson's disease; assay: STEADY-PD III post-hoc analysis: isradipine exposure versus need for antiparkinson therapy and levodopa equivalent dose; assay type: in vivo, human
# [2] = tested on: dopaminergic neurons in the striatum and substantia nigra; settings: 6-hydroxydopamine mouse model, cited from earlier work
# [3] = molecular target: Cav1.3 (Homo sapiens, UniProt Q01668); settings: in vitro; read-out: IC50 for inhibition of calcium currents through Cav1.3 (converted); cited from earlier work
# Sequence of Cav1.3 (Q01668 whole entry): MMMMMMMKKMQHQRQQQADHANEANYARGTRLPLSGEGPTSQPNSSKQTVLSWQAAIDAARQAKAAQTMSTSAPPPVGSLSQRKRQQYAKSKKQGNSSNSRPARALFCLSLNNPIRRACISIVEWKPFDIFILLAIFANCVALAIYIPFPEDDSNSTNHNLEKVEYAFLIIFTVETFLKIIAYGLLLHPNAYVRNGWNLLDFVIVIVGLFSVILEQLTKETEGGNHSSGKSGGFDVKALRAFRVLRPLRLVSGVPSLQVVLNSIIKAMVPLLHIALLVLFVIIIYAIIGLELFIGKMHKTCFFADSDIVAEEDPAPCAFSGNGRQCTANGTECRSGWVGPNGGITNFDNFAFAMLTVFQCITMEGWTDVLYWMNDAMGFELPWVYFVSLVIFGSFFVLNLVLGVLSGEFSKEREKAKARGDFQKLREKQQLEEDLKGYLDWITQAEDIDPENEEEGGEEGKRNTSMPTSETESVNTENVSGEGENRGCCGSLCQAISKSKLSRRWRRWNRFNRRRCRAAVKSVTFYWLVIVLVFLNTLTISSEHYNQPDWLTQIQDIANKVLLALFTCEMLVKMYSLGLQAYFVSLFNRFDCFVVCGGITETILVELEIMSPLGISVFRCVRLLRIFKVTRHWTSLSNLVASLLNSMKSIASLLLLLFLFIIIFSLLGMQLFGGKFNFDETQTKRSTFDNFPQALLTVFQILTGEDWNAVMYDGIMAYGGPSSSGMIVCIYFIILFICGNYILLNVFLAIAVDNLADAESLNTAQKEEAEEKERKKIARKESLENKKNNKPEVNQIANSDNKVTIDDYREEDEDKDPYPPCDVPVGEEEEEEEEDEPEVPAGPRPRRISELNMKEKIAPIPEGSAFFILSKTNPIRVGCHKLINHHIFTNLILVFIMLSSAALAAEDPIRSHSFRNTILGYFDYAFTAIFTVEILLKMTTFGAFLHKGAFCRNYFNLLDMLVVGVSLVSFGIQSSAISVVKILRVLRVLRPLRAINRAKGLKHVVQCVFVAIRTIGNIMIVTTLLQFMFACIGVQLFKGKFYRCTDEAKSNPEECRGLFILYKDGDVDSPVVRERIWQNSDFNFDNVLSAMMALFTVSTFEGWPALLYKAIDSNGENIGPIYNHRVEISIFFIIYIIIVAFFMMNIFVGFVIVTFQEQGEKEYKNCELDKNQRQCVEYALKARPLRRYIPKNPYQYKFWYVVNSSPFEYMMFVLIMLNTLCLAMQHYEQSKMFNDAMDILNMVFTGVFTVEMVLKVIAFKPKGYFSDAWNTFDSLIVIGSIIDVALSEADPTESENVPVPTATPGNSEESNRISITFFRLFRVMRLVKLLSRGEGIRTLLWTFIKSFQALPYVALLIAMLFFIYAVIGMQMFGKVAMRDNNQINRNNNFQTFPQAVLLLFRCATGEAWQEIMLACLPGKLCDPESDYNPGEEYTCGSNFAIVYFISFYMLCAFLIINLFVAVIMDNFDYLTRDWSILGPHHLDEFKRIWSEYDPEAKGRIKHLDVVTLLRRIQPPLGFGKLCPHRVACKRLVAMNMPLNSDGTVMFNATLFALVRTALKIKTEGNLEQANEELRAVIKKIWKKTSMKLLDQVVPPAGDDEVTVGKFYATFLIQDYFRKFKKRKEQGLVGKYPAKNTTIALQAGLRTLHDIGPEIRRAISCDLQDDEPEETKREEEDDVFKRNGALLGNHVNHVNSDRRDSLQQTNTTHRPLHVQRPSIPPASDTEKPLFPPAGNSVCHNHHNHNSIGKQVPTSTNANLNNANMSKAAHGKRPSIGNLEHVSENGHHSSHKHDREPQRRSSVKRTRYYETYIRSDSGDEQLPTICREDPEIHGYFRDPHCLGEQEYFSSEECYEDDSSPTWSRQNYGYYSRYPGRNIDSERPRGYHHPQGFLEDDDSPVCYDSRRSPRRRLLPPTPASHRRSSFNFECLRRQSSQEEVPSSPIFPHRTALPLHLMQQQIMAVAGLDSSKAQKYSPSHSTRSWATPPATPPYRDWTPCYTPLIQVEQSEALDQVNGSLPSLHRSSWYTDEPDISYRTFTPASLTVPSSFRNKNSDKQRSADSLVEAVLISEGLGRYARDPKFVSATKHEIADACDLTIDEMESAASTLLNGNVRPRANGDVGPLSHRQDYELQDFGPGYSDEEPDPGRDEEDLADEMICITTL
# Sequence of Cav1.3 (P54284 whole entry partner): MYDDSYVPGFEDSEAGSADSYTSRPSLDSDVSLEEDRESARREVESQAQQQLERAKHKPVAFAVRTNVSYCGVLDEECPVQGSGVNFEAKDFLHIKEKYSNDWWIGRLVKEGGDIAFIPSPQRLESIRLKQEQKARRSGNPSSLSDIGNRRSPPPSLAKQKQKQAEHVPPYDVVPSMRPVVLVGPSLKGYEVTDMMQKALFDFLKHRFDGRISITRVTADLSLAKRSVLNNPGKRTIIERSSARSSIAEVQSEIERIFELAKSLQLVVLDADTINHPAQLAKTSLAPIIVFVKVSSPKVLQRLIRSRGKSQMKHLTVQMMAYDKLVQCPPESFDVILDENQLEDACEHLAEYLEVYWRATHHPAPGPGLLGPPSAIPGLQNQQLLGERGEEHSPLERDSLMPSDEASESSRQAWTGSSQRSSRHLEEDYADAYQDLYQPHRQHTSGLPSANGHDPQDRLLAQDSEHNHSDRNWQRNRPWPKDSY
# Sequence of Cav1.3 (P54289 25-946 partner limits assumed): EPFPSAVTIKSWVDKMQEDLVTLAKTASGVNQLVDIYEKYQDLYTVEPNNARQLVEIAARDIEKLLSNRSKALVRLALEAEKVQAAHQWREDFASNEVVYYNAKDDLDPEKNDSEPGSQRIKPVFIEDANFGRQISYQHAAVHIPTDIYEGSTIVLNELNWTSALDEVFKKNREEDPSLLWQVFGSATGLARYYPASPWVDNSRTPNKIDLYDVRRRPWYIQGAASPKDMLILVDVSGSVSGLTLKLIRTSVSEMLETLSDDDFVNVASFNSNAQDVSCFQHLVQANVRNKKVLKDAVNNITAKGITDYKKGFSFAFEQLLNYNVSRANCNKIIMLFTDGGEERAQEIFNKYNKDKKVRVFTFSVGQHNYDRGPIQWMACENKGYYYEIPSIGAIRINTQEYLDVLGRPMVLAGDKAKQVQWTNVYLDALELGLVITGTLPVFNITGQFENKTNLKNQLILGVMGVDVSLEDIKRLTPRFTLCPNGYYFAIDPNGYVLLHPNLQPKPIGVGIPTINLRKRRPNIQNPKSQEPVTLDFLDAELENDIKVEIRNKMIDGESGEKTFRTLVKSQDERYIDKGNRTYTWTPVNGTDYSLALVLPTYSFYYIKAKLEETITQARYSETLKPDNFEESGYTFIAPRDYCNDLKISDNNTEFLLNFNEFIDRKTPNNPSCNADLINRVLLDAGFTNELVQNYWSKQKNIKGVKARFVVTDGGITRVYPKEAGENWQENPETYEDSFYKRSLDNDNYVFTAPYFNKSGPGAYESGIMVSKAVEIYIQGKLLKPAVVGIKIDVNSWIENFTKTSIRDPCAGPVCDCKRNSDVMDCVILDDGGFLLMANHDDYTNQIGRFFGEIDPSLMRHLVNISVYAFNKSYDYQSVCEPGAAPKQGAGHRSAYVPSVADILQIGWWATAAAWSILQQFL
# Sequence of Cav1.3 (P54289 947-1103 partner limits assumed): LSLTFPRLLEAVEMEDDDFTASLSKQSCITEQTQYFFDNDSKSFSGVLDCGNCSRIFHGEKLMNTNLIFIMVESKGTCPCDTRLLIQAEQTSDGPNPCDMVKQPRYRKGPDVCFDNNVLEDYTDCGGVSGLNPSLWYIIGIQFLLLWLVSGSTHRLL
# [4] = tested on: SNc DA neurons; settings: chronic treatment in vivo, cited from earlier work
# [5] = population pharmacokinetic modeling of plasma isradipine in STEADY-PD III by tertile groups; settings: IR 5 mg twice daily; for CL/F: steady state; for Cave,ss: based on AUC24
# [6] = Middle CL/F, Middle AUC24 tertile
smiles,measurement,setting,value
COC(=O)C1=C(C)NC(C)=C(C(=O)OC(C)C)C1c1cccc2nonc12 (centres unmarked) [isradipine],HR for time to need therapy,"[1]; highest AUC24 exposure group vs placebo, 95% CI 0.45-0.97",0.66
same,decrease in risk of needing antiparkinson treatment,"[1]; trend per CL/F tertile decrement or AUC24 tertile increment, vs placebo, p for trend=0.02",13%
same,HR for time to first initiation of antiparkinson therapy,"[1]; trend per tertile, vs placebo, 95% CI:0.78-0.98",0.87
same,plasma concentration required to inhibit neuronal death by 50% (IC50),"[2]; systemic administration, plasma concentration",5 to 7 ng/mL
same,protection of dopaminergic neurons in the striatum and substantia nigra,[2]; systemic administration,concentration-dependent protection
same,threshold plasma concentration for protection against neuronal death,[2]; inflection point in the concentration-response curve,1.5 to 2 ng/mL
same,IC50,[3],~8.08 nM
same,high basal rate of mitophagy,[4]; SNc DA neurons,diminished
same,mitochondrial oxidant stress,[4]; SNc DA neurons,significantly lowered
same,cytosolic [Ca2+] in SNc DA neurons,[4],sustained reduction
same,mitochondrial mass in SNc DA neurons,[4],increased
same,"Cmin,ss","[5]; Fast CL/F, Low AUC24 tertile",0.56 ng/mL
same,CL/F,"[5]; Fast CL/F, Low AUC24 tertile",477 L/h
same,"Cave,ss","[5]; Fast CL/F, Low AUC24 tertile",0.9 ng/mL
same,"Cmin,ss",[5]; [6],0.86 ng/mL
same,CL/F,[5]; [6],296 L/h
same,"Cave,ss",[5]; [6],1.4 ng/mL
same,"Cmin,ss","[5]; Slow CL/F, High AUC24 tertile",1.40 ng/mL
same,CL/F,"[5]; Slow CL/F, High AUC24 tertile",195 L/h
same,"Cave,ss","[5]; Slow CL/F, High AUC24 tertile",2.1 ng/mL
